The nature of assay [1]: Effects of pharmacological treatments on plasma hormones and glucose concentrations. It counts as in vivo, Sprague-Dawley rats. The note with it: day 47, mean ± SEM of eight animals; for Glucose: at sacrifice; for Corticosterone / IGF-1 / Insulin: plasma at sacrifice. How it is done: (§1) Thirty-two prepubertal male Sprague-Dawley rats approximately 21 days old and weighing between 45 and 55 grams, were obtained from Harlan, Italy (S. Pietro al Natisone, ITALY). During the study, the animals were maintained in accordance with the guidelines of the Italian Ministry of Health for the care and use of laboratory animals (Decreto legge 116/92). The animals were randomly divided into two treatment groups and kept in a controlled environment at a constant temperature of 21-23° C. with 12:12 light/dark exposure continuous period wherein the light exposure began at approximately 8:00 am and ended at approximately 8:00 pm. The animals were provided with water and food ad libitum consisting of an approximate 3200 calories/kg daily diet of standard pellet chow provided by Piccioni, Gessate-Milano, Italy (containing at least 19% protein, 3% fat and 56% carbohydrate).
(§2) Beginning on the 23rd day (i.e., the animals were 23 days old), 16 of the study animals were treated intraperitoneally (Ip) daily with 40 μg/kg of either saline or dexamethasone sodium phosphate (sold under the trademark Decadron® by Merck Pharmaceuticals, West Point, Pa.). Beginning on the 30th day (i.e., the animals were 30 days old), the subgroup of 16 studied animals was further divided into groups of 8 and treated subcutaneously three times daily (at approximately 9:00 am, 1:00 pm and 5:00 pm) with either 80 nmoles/kg of the preferred ghrelin analog [Aib^2, Glu^3(NH-hexyl)]hGhrelin(1-28)-NH2 (IPSEN, Milford, Mass.) dissolved in a sterile saline solution with 0.25% bovine serum albumin or vehicle (the saline-bovine serum albumin solution alone). This regimen continued for 24 days during which time the studied animals were weighed two times per week. At irregular intervals, the cumulative food intake for a 24-hour period of time was measured. Beginning on the 46th day (i.e., the animals were 46 days old), the length of the test and control animals from nose to anus was measured (hereinafter referred to as “the nose-anal length”). On the 47th day (i.e., the animals were 47 days old), all food was denied to the test subjects commencing at 8:00 am. Small samples of blood were taken via percutaneous puncture of the tail to assess blood glucose levels during the treatment period.
(§3) The test animals received two intravenous administrations of [Aib^2, Glu^3(NH-hexyl)]hGhrelin(1-28)-NH2 at approximately 9:00 am and 1:00 pm. The studied animals were sacrificed by rapid decapitation at approximately 2:00 pm, trunk blood collected for hormone level determinations, and the epididymal fat pads removed and weighed.
Samples of trunk blood were taken from the test subjects via […]. The blood samples were collected in tubes containing EDTA, separated by centrifugation, and stored at −20° C. Plasma insulin, IGF-1, and corticosterone levels were all measured using commercial RIA kits (Insulin and Corticosterone kits were both obtained from ICN-Biomedicals, Asse-Relegem, BELGIUM and the rIGF-1 test kit was obtained from Mediagnostic GMbH, Tubingen, GERMANY). Glucose concentration was determined using the Glucotrend® Soft Test System blood glucose meter (Roche Diagnostics, Barcelona, SPAIN).
(§4) Unless otherwise stated, the results reported in FIGS. 3-6 are expressed as the mean±SEM of eight replicate test subjects. Data was analyzed for statistical significance by one-way ANOVA which determines the variation (variance) within the groups and how that variation translates into variation (i.e. differences) between the groups, taking into account how many subjects there are in each group. […] The linear correlation analysis was performed either by Pearson's parametric test or by Spearman's nonparametric test. A P value below 0.05 was considered significant.

A short description of assay [2]: Effects of pharmacological treatments on growth parameters in dexamethasone-treated young rats. Format: in vivo, Sprague-Dawley rats. The note with it: for Final Body Weight: prepubertal male rats, dexamethasone 40 μg/kg ip daily from day 23, A 80 nmoles/kg sc three times daily from day 30; for Final Body Weight / Final Nose-Anal Length / Lee Obesity Index / Growth Rate / Epididymal Fat Pads: mean ± SEM of eight animals; for Final Nose-Anal Length / Lee Obesity Index / Growth Rate / Epididymal Fat Pads: same regimen; for Growth Rate: slope of growth curve; for Epididymal Fat Pads: weight at sacrifice. How it is done:
as §1, §2, §3, §4

The conditions of assay [3]: rat; cited from earlier work.
Assay [4] is described as follows: 24-h food intake and food efficiency in treated young rats. It counts as in vivo, Sprague-Dawley rats. An excerpt:
FIG. 4. Panel A: the effect of the different pharmacological treatment on 24-h food intake expressed as a percent of the control value. Data represented the mean±SEM of nine determinations performed at irregular intervals from day 33 to day 47 after birth. Panel B: the effect of the different pharmacological treatments on food efficacy calculated as a ratio between food intake (g) and […] measured over the same time interval at different stages of growth. Data represents the meant SEM of eight rats. *P<0.05; **<0.01 vs SAL-treated rats (Dunnett's test). Panel C: the effect of the different pharmacological treatments on the cumulative food intake measured over the indicated time intervals at different stages of growth.
Beginning on the 23rd day (i.e., the animals were 23 days old), 16 of the study animals were treated intraperitoneally (Ip) daily with 40 μg/kg of either saline or dexamethasone sodium phosphate (sold under the trademark Decadron® by Merck Pharmaceuticals, West Point, Pa.). Beginning on the 30th day (i.e., the animals were 30 days old), the subgroup of 16 studied animals was further divided into groups of 8 and treated subcutaneously three times daily (at approximately 9:00 am, 1:00 pm and 5:00 pm) with either 80 nmoles/kg of the preferred ghrelin analog [Aib^2, Glu^3(NH-hexyl)]hGhrelin(1-28)-NH2 (IPSEN, Milford, Mass.) dissolved in a sterile saline solution with 0.25% bovine serum albumin or vehicle (the saline-bovine serum albumin solution alone). This regimen continued for 24 days during which time the studied animals were weighed two times per week. At irregular intervals, the cumulative food intake for a 24-hour period of time was measured. Beginning on the 46th day (i.e., the animals were 46 days old), the length of the test and control animals from nose to anus was measured (hereinafter referred to as “the nose-anal length”). […]
Food efficiency was calculated as the ratio between body weight gain (in grams) and food intake (in grams) measured over the same time interval.

In the case of `C[C@@H]1C[C@H]2[C@@H]3CCC4=CC(=O)C=C[C@]4(C)[C@@]3(F)[C@@H](O)C[C@]2(C)[C@@]1(O)C(=O)CO` [Dexamethasone, 9-fluoro-11β,17,21-trihydroxy-16a-methylpregna-1,4-diene-3,20-dione, reference compound], in assay [1], the Glucose worked out at 107 ± 6 mg/dL, the Corticosterone came to 19 ± 2 ng/mL, the IGF-1 was 1257 ± 112 ng/mL and the Insulin stood at 50 ± 6 μIU/ml. For the same molecule, in assay [2], the “Final Body Weight” value is 185.2 ± 4.2 g, the “Final Nose-Anal Length” value was determined as 17.8 ± 0.2 cm, the “Lee Obesity Index” value amounted to 321 ± 1.6 and the “Growth Rate” value turned out to be 5.6 ± 0.2 g/day. Also, the “Epididymal Fat Pads” value in assay [2] was 1.14 ± 0.06 g.
With GHRP-6, in assay [3], the “glucocorticoid-mediated GH-inhibition” value is given as “able to completely counteract”.
In assay [1], “[Aib^2, Glu^3(NH-hexyl)]hGhrelin(1-28)-NH2” had a Glucose of 122 ± 3 mg/dL, a Corticosterone of 235 ± 23 ng/mL, an IGF-1 of 1653 ± 87 ng/mL and an Insulin of 40.4 ± 5.7 μIU/ml. In assay [4] (FIG. 4B, two out of three determinations), the “food efficiency (ratio body weight gain / food intake) vs saline treatment” value is given as “increased”. The “cumulative 24-hour food intake vs saline-treated animals” value in assay [4] (after 10 days from beginning of dexamethasone treatment, FIG. 4A) is given as “increased”. For the same molecule, the “decrease of food efficiency induced by dexamethasone” value in assay [4] (co-administration with dexamethasone, FIG. 4B) is on record as “able to reverse”. For the same molecule, the “growth suppression induced by DEX” value in assay [2] (concomitant treatment with DEX, FIG. 3) is reported as “reversed”. Besides, in assay [2], the “Final Body Weight” value is on record as 230.8 ± 4.8 g, the “Final Nose-Anal Length” value was found to be 19.3 ± 0.1 cm, the “Lee Obesity Index” value stood at 318 ± 1.4 and the “Growth Rate” value is on record as 7.6 ± 0.3 g/day. The “Epididymal Fat Pads” value in assay [2] came to 1.31 ± 0.07 g. The “somatic growth as compared to SAL-treated rats” value in assay [2] (young male rats, FIG. 3, Dunnett's t test) was “significantly increased”.
